Laboratory results reported in PubChem BioAssay (NCI).
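Values below derive from 48-hour exposures of cells grown in 96-well plates, with endpoints linearly interpolated between the two concentrations bracketing the appropriate inhibition level. Definition used: TGI = concentration required for complete inhibition of growth.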

Columns and labels:
Assay in all cases: DTP human tumour cell line panel, 48 h
SK-MEL-5 melanoma = tested on: SK-MEL-5 melanoma
U251 CNS = tested on: U251 CNS
PC-3 prostate = tested on: PC-3 prostate
ACHN renal = tested on: ACHN renal
HS 578T breast = tested on: HS 578T breast
T-47D breast = tested on: T-47D breast
SK-MEL-2 melanoma = tested on: SK-MEL-2 melanoma
SN12C renal = tested on: SN12C renal
HOP-62 NSCLC = tested on: HOP-62 NSCLC
SW-620 colon = tested on: SW-620 colon
MDA-MB-435 = tested on: MDA-MB-435
UACC-62 melanoma = tested on: UACC-62 melanoma
IGROV1 ovarian = tested on: IGROV1 ovarian
HCT-116 colon = tested on: HCT-116 colon
786-0 renal = tested on: 786-0 renal
MDA-N = tested on: MDA-N
LOX IMVI melanoma = tested on: LOX IMVI melanoma
HT29 colon = tested on: HT29 colon
SR leukemia = tested on: SR leukemia
COLO 205 colon = tested on: COLO 205 colon
SF-268 CNS = tested on: SF-268 CNS
NCI-H226 lung = tested on: NCI-H226 lung
OVCAR-4 ovarian = tested on: OVCAR-4 ovarian
HL-60(TB) leukemia = tested on: HL-60(TB) leukemia
HOP-92 NSCLC = tested on: HOP-92 NSCLC
SK-MEL-28 melanoma = tested on: SK-MEL-28 melanoma
SF-295 CNS = tested on: SF-295 CNS
K-562 leukemia = tested on: K-562 leukemia
MOLT-4 leukemia = tested on: MOLT-4 leukemia
SF-539 CNS = tested on: SF-539 CNS
MCF7 breast = tested on: MCF7 breast
NCI-H23 lung = tested on: NCI-H23 lung
TK-10 renal = tested on: TK-10 renal
NCI/ADR-RES ovarian = tested on: NCI/ADR-RES ovarian
CCRF-CEM leukemia = tested on: CCRF-CEM leukemia
KM12 colon = tested on: KM12 colon
SK-OV-3 ovarian = tested on: SK-OV-3 ovarian
SNB-75 CNS = tested on: SNB-75 CNS
CAKI-1 renal = tested on: CAKI-1 renal
RPMI-8226 leukemia = tested on: RPMI-8226 leukemia
BT-549 breast = tested on: BT-549 breast
DU-145 prostate = tested on: DU-145 prostate
UO-31 renal = tested on: UO-31 renal
SNB-19 CNS = tested on: SNB-19 CNS
HCC-2998 colon = tested on: HCC-2998 colon
UACC-257 melanoma = tested on: UACC-257 melanoma
A549 NSCLC = tested on: A549 NSCLC
OVCAR-5 ovarian = tested on: OVCAR-5 ovarian
M14 melanoma = tested on: M14 melanoma
NCI-H460 lung = tested on: NCI-H460 lung
OVCAR-3 ovarian = tested on: OVCAR-3 ovarian
HCT-15 colon = tested on: HCT-15 colon
OVCAR-8 ovarian = tested on: OVCAR-8 ovarian
MDA-MB-231 breast = tested on: MDA-MB-231 breast
EKVX NSCLC = tested on: EKVX NSCLC
NCI-H522 lung = tested on: NCI-H522 lung
RXF 393 renal = tested on: RXF 393 renal
A498 renal = tested on: A498 renal
MALME-3M melanoma = tested on: MALME-3M melanoma

Measured: TGI

O=C1COc2cc(N3CCN(c4cccc(C(F)(F)F)c4)CC3)ccc2N1
not listed: RXF 393 renal | A498 renal | MALME-3M melanoma
> 100 µM: all other assays above

CC1C(NNC(N)=O)Oc2cc3c(cc2C1c1ccccc1O)OCO3 (stereo unspecified)
86.3 µM: SNB-75 CNS
35.4 µM: HL-60(TB) leukemia
43.1 µM: SR leukemia
32.8 µM: SW-620 colon
90.6 µM: PC-3 prostate
84.6 µM: RXF 393 renal
86.4 µM: IGROV1 ovarian
64.1 µM: K-562 leukemia
97.2 µM: MALME-3M melanoma
48 µM: MDA-MB-435
76.8 µM: HCT-116 colon
74 µM: SF-539 CNS
76.2 µM: SF-295 CNS
54.5 µM: CCRF-CEM leukemia
50.4 µM: HOP-92 NSCLC
76.7 µM: MDA-N
58.6 µM: NCI-H522 lung
68.9 µM: A498 renal
78.6 µM: RPMI-8226 leukemia
not listed: 786-0 renal | COLO 205 colon | OVCAR-4 ovarian | NCI/ADR-RES ovarian | OVCAR-8 ovarian
> 100 µM: all other assays above

CN1/C(=C/C=C/C=C/C=C2C(=O)c3ccccc3C2=O)C(C)(C)c2ccccc21
66.3 µM: SK-MEL-2 melanoma
94.1 µM: MALME-3M melanoma
91.3 µM: SF-539 CNS
81.4 µM: RXF 393 renal
36.1 µM: SK-MEL-5 melanoma
65.2 µM: A498 renal
54.1 µM: UACC-257 melanoma
81 µM: BT-549 breast
58 µM: HOP-92 NSCLC
58.3 µM: UACC-62 melanoma
not listed: U251 CNS | PC-3 prostate | SK-MEL-28 melanoma | MOLT-4 leukemia | HCC-2998 colon
> 100 µM: all other assays above

Fc1cccc(F)c1C1SCc2nc3cc(Cl)c(Cl)cc3n21 (stereo unspecified)
not listed: NCI-H226 lung | A498 renal
> 100 µM: all other assays above
